Laboratory results from patent publication US20250388571A1, “AMP-ACTIVATED PROTEIN KINASE MODULATOR COMPOUNDS AND USES THEREOF” (Biolexis Therapeutics, Inc., priority 2024, published 2025).
“Also recorded” adds a separate entry of the source. Read-outs that look alike come from different tables or passages of the source.

How the values were obtained:
[1] = tested on: human skeletal muscle cells (HSKM cells); experiment: Glucose uptake assay, human skeletal muscle cells; type: cell-based
Procedure: FIGS. 1-4 show results for cells treated with differing doses of representative compounds of Structure (I) (i.e., compound I-11 in FIG. 1 and compound I-7 in FIG. 2) as well reference compounds (i.e., PF-06409577 in FIG. 3 and MK-8722 in FIG. 4). […] Cells were starved for 3 hours in high glucose DMEM without FBS, then treated with indicated compounds in DMEM without FBS/glucose for 1 hour, and glucose uptake was detected using an uptake glucose kit (Promega). The bars show (from left to right) concentrations of 100 μM, 33 μM, 11 μM, 3.7 μM, 1.23 μM, 0.41 μM, 0.14 μM, 0.045 μM, 0.015 μM, 0.005 μM, 0 μM, and insulin.
Human skeletal myoblasts were obtained (Thermofisher; BYU) and cultured in DMEM/F12 medium with 10% FBS. For differentiation, 2% horse serum low glucose DMEM medium was employed for 72 hours. Human cardiomyocytes cells (HCM cells; Promocell) were cultured in myocyte growth medium (Promocell). Human preadipocyte HWP-c cells (Promocell) were obtained from upper arm of diabetic II donor. Human preadipocyte HWP-c cells (Promocell) were obtained from abdomen of diabetic II donor. For differentiating human preadipocytes, cells were cultured in preadipocyte growth medium to total confluency stage. The growth medium was replaced with preadipocyte differentiation medium for 72 hours, then changed to PromoCell adipocyte nutrition medium to complete the differentiation process. THLE-2 cells were cultured in BEGM from Lonza/Clonetics Corporation, Walkersville, MD 21793 (BEGM Bullet Kit; CC3170). HepG2, L6 and C2Cl2 cells were cultured in EMEM medium.
After differentiation myoblasts, preadipocyte cells were starved by removing the medium and adding 100 μL DMEM without serum. The medium was then replaced with 100 μL DMEM±1 μM insulin at indicated concentration of representative compounds without serum or glucose. The cells were then incubated for 1 hour at 37° C. in 5% CO2. The cells were then removed from the medium and 50 μL of 0.1 mM 2DG in PBS was added. Cells were incubated for 30 minutes at 25° C. 25 μL of Stop Buffer was added and samples were mixed. 25 μL of Neutralization Buffer was then added and mixed. 100 μL of 2DG6P Detection Reagent was then added and mixed. Samples were then incubated for 1 hour at 25° C. Luminescence was then recorded with 0.3-1 second integration on a luminometer.

[2] = PK oral bioavailability experiment, mouse; type: in vivo, male Swiss Albino Mouse; details: 1 mg/kg intravenous, 5 mg/kg oral
Procedure: A total of 24 male Swiss albino mouse were allotted for the study, Animals were allotted to 2 groups containing 12 mice/group, on day of dosing all the animals were fasted 3 hours before dosing. The test formulation was administered as a single dose by intravenous and oral route via tail vein and oral gavage needle at a dose of 1 and 5 mg/kg with a dose volume of 5 and 10 mL/kg, respectively.
Approximately 0.1 mL of blood sample from each animal was collected via retro orbital at predetermined time points (3 animals/Timepoint) in pre-labeled Eppendorf tubes containing anticoagulant. After blood collection at 0.5 h and 1 h, after collection of CSF, whole blood was withdrawn, and brain tissue was collected as a terminal sampling. Blood samples were centrifuged at 10000 rpm for 5 min under refrigeration (2-4° C.) within 0.5 h to obtain plasma. The separated plasma samples were collected in pre labeled tubes within 60 min of separation and stored at −20° C. up to 24 h. Post 24 h sample collection, all plasma samples were transferred to deep freezer custodian to store below or at −70° C. until shipment.
Similarly, CSF and Brain were collected at 0.5 h and 1h time point by scarification. Tissues were blotted and dried and then transferred to 15 mL falcon tubes. Initially all tissue samples were stored at −20±3° C. Later all brain tissue samples were homogenized with PBS at 1:4 ratio and the brain homogenate were transferred to deep freezer (−70±10° C.) and stored.
The PK parameters were evaluated using Phoenix WinNonlin® Ent-Version 8.3 by non-compartmental analysis.

[3] = Plasma, liver and adipose tissue concentration in db/db mice, day 36; type: in vivo, mice (Mus musculus; db/db C57BL/6); details: post 4 hours dosing on day 36; for concentration at 4 h: male, db/db C57BL/6, mouse, oral
Procedure: A mixture of DMSO (2%), Cremophor EL (2%), Tween 80 (1%), 0.5% methyl cellulose (35%), and water (60%) was used for the formulation. Doses were prepared at concentrations of 30 and 50 mg/kg. Administration was oral, daily for 36 days. Male mice (Mus musculus; db/db C57BL/6) aged 8-9 weeks and weighing less than or equal to 40 grams were used for the study. Groups were assigned 10 mice per group.
G2 and G3 plasma, liver and adipose tissue samples were collected post 4 hours dosing on day 36.

O=c1[nH]c(-c2c[nH]c3cc(F)c(-c4ccc(C5(O)CCC5)cc4)c(F)c23)no1 [Compound I-11, 3-(4,6-difluoro-5-(4-(1-hydroxycyclobutyl)phenyl)-1H-indol-3-yl)-1,2,4-oxadiazol-5(4H)-one]
glucose uptake compared with reference compounds, based on RLU values [1]: much more glucose uptake compared with reference compounds | dose dependence of glucose uptake (printed: activation of insulin / AMPK activation) ([1]; 100 μM to 0.005 μM, 1 hour): dose-dependent manner; also recorded: dose dependence | glucose uptake ([1]; starved, treated 1 hour): induced glucose uptake; also recorded: increased glucose uptake | clearance [2]: low clearance | elimination [2]: biphasic elimination | systemic exposure [2]: moderate systemic exposure | Liver (ng/mL), PK concentration, Average ([3]; 30 mg/kg): BLQ | Liver (ng/mL), PK concentration, Average ([3]; 50 mg/kg): BLQ | concentration at 4 h ([3]; adipose tissue, 30 mg/kg, read-out: Adipose tissue (ng/mL), PK concentration, Average): 19.5 ng/mL | concentration at 4 h ([3]; adipose tissue, 50 mg/kg, read-out: Adipose tissue (ng/mL), PK concentration, Average): 11 ng/mL | concentration at 4 h ([3]; plasma, 30 mg/kg, read-out: Plasma (ng/mL), PK concentration, Average): 244 ng/mL | concentration at 4 h ([3]; plasma, 50 mg/kg, read-out: Plasma (ng/mL), PK concentration, Average): 197 ng/mL
